According to patent publication US20100048660A1, “TREATMENT OF DUCHENNE MUSCULAR DYSTROPHY” (priority 2006, published 2010):

Test system: Utrophin A promoter linked to a luciferase reporter gene (H2K/mdx/Utro A reporter cell line)
Test: Luciferase reporter assay (murine H2K cells)
Format: cell-based
Conditions: Mus musculus; Table 1; murine H2K mdx myoblasts, compound final concentration 10 μM, 48 hrs; read-out: Activity (luciferase reporter assay, relative to control)
Method: 1. Luciferase Reporter Assay (Murine H2K Cells)
The cell line used for the screen is an immortalized mdx mouse H2K cell line that has been stably transfected with a plasmid containing ≈5 kb fragment of the Utrophin A promoter including the first untranslated exon linked to a luciferase reporter gene (see FIG. 1).
Under conditions of low temperature and interferon containing media, the cells remain as myoblasts. These are plated into 96 well plates and cultured in the presence of compound for three days. The level of luciferase is then determined by cell lysis and reading of the light output from the expressed luciferase gene utilising a plate luminometer.
The H2K/mdx/Utro A reporter cell line was passaged twice a week until ≦30% confluent. The cells were grown at 33° C. in the presence of 10% CO2
The H2K/mdx/Utro A reporter cell line cells were plated out into 96 well plates (Falcon 353296, white opaque) at a density of approximately 5000 cells/well in 190 μl normal growth medium. The plates were then incubated at 33° C. in the presence of 10% CO2 for 24 hrs.
Compounds were dosed by adding 10 μl of diluted compound to each well giving a final concentration of 10 μM. The plates were then incubated for a further 48 hrs
Cells were then lysed in situ following the manufacture's protocols (Promega Steady-Glo Luciferase Assay System (E2520). Then counted for 10 seconds using a plate luminometer (Victorl420).

Row | Structure (SMILES) | activity at 10 µM
1 | CCN(CC)c1ccc(-n2nc3ccc(NC(=O)c4ccco4)cc3n2)cc1 [Example 27, N-(2-(4-(diethylamino)phenyl)-2H-benzo[d][1,2,3]triazol-5-yl)furan-2-carboxamide] | < 200%
2 | CS(=O)(=O)c1ccc2nn(-c3ccc(Cl)cc3)[n+]([O-])c2c1 [Example 47, 2-(4-chlorophenyl)-6-(methylsulfonyl)-2H-benzo[d][1,2,3]triazole 1-oxide] | < 200%
3 | CC(=O)Nc1ccc2nn(-c3ccc(Cl)cc3)nc2c1 [Example 39, N-(2-(4-chlorophenyl)-2H-benzo[d][1,2,3]triazol-5-yl)acetamide] | > 401%
4 | CCC(=O)Nc1ccc2nn(-c3ccc(N(CC)CC)cc3)nc2c1 [Example 23, N-(2-(4-(diethylamino)phenyl)-2H-benzo[d][1,2,3]triazol-5-yl)propionamide] | < 200%
5 | CC(C)C(=O)Nc1ccc2nn(-c3ccc(Cl)c(Cl)c3)nc2c1 [Example 53, N-(2-(3,4-Dichlorophenyl)-2H-benzo[d][1,2,3]triazol-5-yl)isobutyramide] | > 401%
6 | CN(C)c1ccc(-n2nc3ccc(N)cc3n2)cc1 [Example 41, 2-(4-(dimethylamino)phenyl)-2H-benzo[d][1,2,3]triazol-5-amine] | 301 to 400%
7 | Cc1cc2nn(-c3ccc(Cl)cc3)nc2cc1N [Example 43, 2-(4-chlorophenyl)-6-methyl-2H-benzo[d][1,2,3]triazol-5-amine] | > 401%
8 | O=[N+]([O-])c1ccc2cn(-c3ccc(Cl)cc3)nc2c1 [Example 45, 2-(4-chlorophenyl)-6-nitro-2H-indazole] | < 200%
9 | CS(=O)(=O)c1ccc2nn(-c3ccc(Cl)cc3)nc2c1 [Example 49, 2-(4-chlorophenyl)-5-(methylsulfonyl)-2H-benzo[d][1,2,3]triazole] | < 200%
10 | CCN(CC)c1ccc(-n2nc3ccc(NC(=O)c4ccncc4)cc3n2)cc1 [Example 21, N-(2-(4-(diethylamino)phenyl)-2H-benzo[d][1,2,3]triazol-5-yl)isonicotinamide] | < 200%
11 | CCS(=O)(=O)c1ccc2nn(-c3ccc(Cl)cc3)nc2c1 [Example 52, 2-(4′-chlorophenyl)-5-(ethylsulfonyl)-benzotriazole] | > 401%
12 | CS(=O)(=O)c1ccc2nn(-c3ccc(Cl)c(Cl)c3)nc2c1 [Example 50, 2-(3,4-dichlorophenyl)-5-(methylsulfonyl)-2H-benzo[d][1,2,3]triazole] | 201 to 300%
13 | CCS(=O)(=O)c1ccc2nn(-c3ccc(Cl)c(Cl)c3)nc2c1 [Example 51, 2-(3′,4′-dichlorophenyl)-5-(ethylsulfonyl)-benzotriazole] | 301 to 400%
14 | CS(=O)(=O)c1ccc2nn(-c3ccc4ccccc4c3)[n+]([O-])c2c1 [Example 54, 6-(Methylsulfonyl)-2-(naphthalen-2-yl)-2H-benzo[d][1,2,3]triazole 1-oxide] | 201 to 300%
15 | CS(=O)(=O)c1ccc2nn(-c3ccc4ccccc4c3)nc2c1 [Example 55, 5-(Methylsulfonyl)-2-(naphthalen-2-yl)-2H-benzo[d][1,2,3]triazole] | > 401%
16 | Cc1cc2nn(-c3ccc(Cl)cc3)nc2cc1NC(=O)c1ccncc1 [Example 2, N-(2-(4-chlorophenyl)-6-methyl-2H-benzo[d][1,2,3]triazol-5-yl)isonicotinamide] | 201 to 300%
17 | CCN(CC)c1ccc(-n2nc3ccc(NC(=O)c4ccccc4OC)cc3n2)cc1 [Example 31, N-(2-(4-(diethylamino)phenyl)-2H-benzo[d][1,2,3]triazol-5-yl)-2-methoxybenzamide] | < 200%
18 | CCN(CC)c1ccc(-n2nc3ccc(NC(=O)C(C)C)cc3n2)cc1 [Example 26, N-(2-(4-(diethylamino)phenyl)-2H-benzo[d][1,2,3]triazol-5-yl)isobutyramide] | < 200%

Same assay, conditions: Mus musculus; Table 2; murine H2K mdx myoblasts, compound final concentration 10 μM, 48 hrs; read-out: Activity (luciferase reporter assay, relative to control)

Row | Structure (SMILES) | activity at 10 µM
19 | Cc1ccc(-n2nc3cc(C)c(N)cc3n2)cc1 [Example 65, 6-methyl-2-p-tolyl-2H-benzo[d][1,2,3]triazol-5-amine] | 201 to 300%
20 | CCOc1ccc(-n2nc3cc(C)c(N)cc3n2)cc1 [Example 64, 2-(4-ethoxyphenyl)-6-methyl-2H-benzo[d][1,2,3]triazol-5-amine] | 201 to 300%
21 | COc1ccc(-n2nc3cc(C)c(NC(C)=O)cc3n2)cc1 [Example 66, N-(2-(4-methoxyphenyl)-6-methyl-2H-benzo[d][1,2,3]triazol-5-yl)acetamide] | < 200%
